Source: patent publication US20240254087A1, “SELECTIVE, PARTIAL, AND ARRESTIN-BIASED 5-HT2A AGONISTS WITH UTILITY IN VARIOUS DISORDERS” (Saint Joseph's University, priority 2021, published 2024)
Where a name gives a salt, the structure may show the parent alone. Read-outs that look alike come from different tables or passages of the source.

What was measured:
5-HT2A [1] = biological target: 5-HT2A (Homo sapiens, UniProt P28223); assay: Ca2+ flux assay, 5-HT2A; format: cell-based; design: expressed in transfected cells; conditions: for EC50: Ca2+ flux; for Emax: read-out: 5-HT2A Emax % 5-HT, Ca2+ flux
Method: (§1) Cell lines were maintained in DMEM containing 10% FBS, 10 μg/mL Blasticidin (Invivogen), and 100 μg/mL Hygromycin B (GoldBio). At least 20-24 hours before the assay, receptor expression was induced with tetracycline ([…]) and cells were seeded into 384-well poly-L-lysine-coated black plates at a density of 7,500 cells/well in DMEM containing 1% dialyzed FBS. On the day of the assay, the cells were incubated for 1 h at 37° C. with Fluo-4 Direct dye (Invitrogen, 20 μl/well) reconstituted in drug buffer (20 mM HEPES-buffered HBSS, pH 7.4) containing 2.5 mM probenecid. Drug dilutions were prepared at 5X final concentration in McCorvy buffer (20 mM HEPES-buffered HBSS, 0).1% BSA, 0.01% ascorbic acid pH 7.4). After dye load, cells were allowed to equilibrate to room temperature for 15 minutes, and then placed in a FLIPR^TETRA fluorescence imaging plate reader (Molecular Devices). Fluorescence for the FLIPR^TETRA were programmed to read baseline fluorescence for 10 s (1 read/s), and afterward 5 μl of drug per well was added and read for a total of 5-10 min (1 read/s). Fluorescence in each well was normalized to the average of the first 10 reads for baseline fluorescence, and then either maximum-fold peak increase over basal or area under the curve (AUC) was calculated. […] Data was plotted and non-linear regression was performed using “log(agonist) vs. response” in Graphpad Prism 8 to yield Emax and EC50 parameter estimates.

5-HT2C [2] = biological target: T1, 5-HT2C (Homo sapiens, UniProt P28335); assay: BRET Gq dissociation, 5-HT2C; format: cell-based; design: expressed in transfected cells; host or cells: HEK293T, transient; conditions: for Emax: read-out: 5-HT2C Gq Dissociation (BRET) EMAX ± SEM (%5-HT)
T1 sequence (P28335 33-458): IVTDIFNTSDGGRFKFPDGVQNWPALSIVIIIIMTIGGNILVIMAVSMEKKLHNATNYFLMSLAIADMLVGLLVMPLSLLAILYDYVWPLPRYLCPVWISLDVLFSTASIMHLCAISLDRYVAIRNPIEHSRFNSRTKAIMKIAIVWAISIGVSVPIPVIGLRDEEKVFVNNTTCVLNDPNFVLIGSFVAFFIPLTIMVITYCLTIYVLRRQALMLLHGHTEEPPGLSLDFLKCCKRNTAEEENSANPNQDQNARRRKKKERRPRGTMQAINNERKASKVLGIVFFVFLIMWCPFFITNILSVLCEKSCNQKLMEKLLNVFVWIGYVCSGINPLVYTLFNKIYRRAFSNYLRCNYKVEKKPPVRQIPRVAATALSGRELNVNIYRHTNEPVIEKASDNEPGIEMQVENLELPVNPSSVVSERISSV

5-HT2B [3] = biological target: T2, 5-HT2B (Homo sapiens, UniProt P41595); assay: Ca2+ flux assay, 5-HT2B; format: cell-based; design: expressed in transfected cells; conditions: Ca2+ flux; for Emax: read-out: 5-HT2B Emax % 5-HT
Method: as §1

male C57BL/6J mice = assay: Head-twitch response (HTR) in mice; format: in vivo, mouse; conditions: for ED50: Mus musculus
Method: Male C57BL/6J mice (6-8 weeks old) from Jackson Labs (Bar Harbor, ME, USA) were used for the behavioral experiments. The mice were housed on a reversed light-dark cycle (lights on at 1900 h, off at 0700 h) in an AAAC-approved vivarium at the University of California San Diego. Mice were housed up to four per cage in a climate-controlled room and with food and water provided ad libitum except during behavioral testing. Testing was performed between 1000 and 1800 h (during the dark phase of the light-dark cycle). The studies were conducted in accordance with National Institutes Health (NIH) guidelines and were approved by the University of California San Diego Institutional Animal Care and Use Committee.
The mice were allowed to recover from the magnet implantation surgeries for at least 1 week prior to behavioral testing. HTR experiments were conducted in a well-lit room, and the mice were allowed to habituate to the room for at least 1 h prior to testing. Head twitches was assessed in a 12-cm diameter glass cylinder surrounded by a magnetometer coil. Coil voltage was low-pass filtered (2 kHz), amplified, and digitized (20-kHz sampling rate) using a Powerlab/8SP with LabChart v 7.3.2 (ADInstruments, Colorado Springs, CO, USA). […] HTR counts were analyzed using one-way ANOVAs. Dunnett's test was used for post hoc comparisons.

5-HT2C [4] = biological target: T1, 5-HT2C; assay: Ca2+ flux assay, 5-HT2C; format: cell-based; design: expressed in transfected cells; conditions: for EC50: 5-HT2C EC50, nM; for Emax: read-out: 5-HT2C Emax % 5-HT
Method: as §1

5-HT2B [5] = biological target: T2, 5-HT2B; assay: BRET Gq dissociation, 5-HT2B; format: cell-based; design: expressed in transfected cells; host or cells: HEK293T, transient; conditions: for Emax: read-out: 5-HT2B Gq Dissociation (BRET) EMAX ± SEM (%5-HT)
5-HT2A [6] = assay: Ca2+ flux assay, 5-HT2A; format: cell-based, human; conditions: Gq/11 Ca2+ mobilization; higher number = skewed towards 5-HT2A
Method: as §1

[7] = read-out: HTR ED50 μmol/kg (95% CI), SC, except DOI and 25D-NBOMe IP
[8] = read-out: HTR ED50 mg/kg (95% CI), SC, except DOI and 25D-NBOMe IP

Chain of 5-HT2A (Homo sapiens, UniProt P28223) (P28223 whole entry): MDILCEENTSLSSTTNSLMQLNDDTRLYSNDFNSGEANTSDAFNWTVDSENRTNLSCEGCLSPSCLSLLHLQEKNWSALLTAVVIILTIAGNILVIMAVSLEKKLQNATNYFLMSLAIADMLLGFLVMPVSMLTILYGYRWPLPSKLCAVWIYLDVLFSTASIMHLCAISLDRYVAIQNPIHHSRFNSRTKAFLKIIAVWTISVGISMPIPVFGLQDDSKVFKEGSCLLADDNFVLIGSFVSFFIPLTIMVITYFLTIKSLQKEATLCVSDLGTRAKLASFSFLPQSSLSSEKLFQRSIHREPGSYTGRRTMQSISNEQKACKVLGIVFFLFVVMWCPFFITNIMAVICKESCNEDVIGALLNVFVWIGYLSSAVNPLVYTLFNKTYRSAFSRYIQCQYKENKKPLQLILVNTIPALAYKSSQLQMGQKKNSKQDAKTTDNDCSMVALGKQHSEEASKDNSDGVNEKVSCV
T2 sequence (P41595 whole entry): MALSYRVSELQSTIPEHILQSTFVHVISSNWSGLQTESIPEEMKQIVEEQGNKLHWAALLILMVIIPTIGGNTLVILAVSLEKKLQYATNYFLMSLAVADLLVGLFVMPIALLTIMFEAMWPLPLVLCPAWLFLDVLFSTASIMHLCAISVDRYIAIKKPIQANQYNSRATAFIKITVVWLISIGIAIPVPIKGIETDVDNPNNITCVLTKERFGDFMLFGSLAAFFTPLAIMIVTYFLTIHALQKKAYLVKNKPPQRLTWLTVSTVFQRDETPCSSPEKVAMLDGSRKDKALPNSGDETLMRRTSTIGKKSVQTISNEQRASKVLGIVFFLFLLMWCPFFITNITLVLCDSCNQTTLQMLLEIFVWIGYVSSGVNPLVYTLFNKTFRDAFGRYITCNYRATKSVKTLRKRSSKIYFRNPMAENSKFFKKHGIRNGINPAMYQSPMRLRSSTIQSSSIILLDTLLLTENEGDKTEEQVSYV

| SMILES | melting point | Emax (5-HT2A [1]) | 5-HT2B EC50, nM (5-HT2B [3]) | Emax (5-HT2B [3]) | Max HTR response during a 30-min assessment (maximum counts ÷ baseline response) (male C57BL/6J mice) | ED50 (male C57BL/6J mice; [7]) | ED50 (male C57BL/6J mice; [8]) | EC50 (5-HT2C [4]) | Emax (5-HT2C [4]) | 5-HT2A/5-HT2c Selectivity Factor ΔLog(Emax/EC50) (5-HT2A [6]) | also measured |
| --- | --- | --- | --- | --- | --- | --- | --- | --- | --- | --- | --- |
| COc1cc(OC)c(OC)cc1CCNC(C)c1cccc2ccccc12 (centres unmarked) (as salt: HCl) | 195.2 to 196.4 °C | – | – | – | – | – | – | – | – | – | – |
| COc1cc([N+](=O)[O-])c(OC)cc1CCNCc1cccc2ccccc12 (as salt: HCl) [25N-N-1-Nap (16), [2-(2,5-dimethoxy-4-nitrophenyl)ethyl][(naphthalen-1-yl)methyl]amine] | 191.8 to 192.3 °C | – | – | – | – | – | – | – | – | – | – |
| COc1cc([N+](=O)[O-])c(OC)cc1CCNCc1ccccc1 (as salt: HCl) [25N-NB (2), Benzyl[2-(2,5-dimethoxy-4-nitrophenyl)ethyl]amine] | 220 to 221 °C | – | – | – | – | – | – | – | – | – | – |
| COc1cc([N+](=O)[O-])c(OC)cc1CCNCc1cccc(F)c1OC (as salt: HCl) [25N-NB-2-MeO-3-F (19), [2-(2,5-dimethoxy-4-nitrophenyl)ethyl][(3-fluoro-2-methoxyphenyl)methyl]amine] | 155 to 156.7 °C | – | – | – | – | – | – | – | – | – | – |
| COc1cc([N+](=O)[O-])c(OC)cc1CCNCc1cccc(C)c1O (as salt: HCl) [25N-NB-2-OH-3-Me (18), 2-({[2-(2,5-dimethoxy-4-nitrophenyl)ethyl]amino}methyl)-6-methylphenol] | 177.6 to 179.5 °C | – | – | – | – | – | – | – | – | – | – |
| COc1cc([N+](=O)[O-])c(OC)cc1CCNCc1cccc(F)c1 (as salt: HCl) [25N-NB-3-F (24), [2-(2,5-dimethoxy-4-nitrophenyl)ethyl][(3-fluorophenyl)methyl]amine] | 216.2 to 217.5 °C | – | – | – | – | – | – | – | – | – | – |
| COc1cc([N+](=O)[O-])c(OC)cc1CCNCc1cccc(C)c1 (as salt: HCl) [25N-NB-3-Me (22), [2-(2,5-dimethoxy-4-nitrophenyl)ethyl][(3-methylphenyl)methyl]amine] | 194.4 to 195.5 °C | – | – | – | – | – | – | – | – | – | – |
| COc1cc([N+](=O)[O-])c(OC)cc1CCNCc1cccc(O)c1 (as salt: HCl) [25N-NB-3-OH (21), 3-({[2-(2,5-dimethoxy-4-nitrophenyl)ethyl]amino}methyl)phenol] | 194 to 195.5 °C | – | – | – | – | – | – | – | – | – | – |
| COc1cc([N+](=O)[O-])c(OC)cc1CCNCc1ccc(F)cc1 (as salt: HCl) [25N-NB-4-F (25), [2-(2,5-dimethoxy-4-nitrophenyl)ethyl][(4-fluorophenyl)methyl]amine] | 180 to 181 °C | – | – | – | – | – | – | – | – | – | – |
| COc1cc([N+](=O)[O-])c(OC)cc1CCNCc1ccc(C)cc1 (as salt: HCl) [25N-NB-4-Me (23), [2-(2,5-dimethoxy-4-nitrophenyl)ethyl] [(4-methylphenyl)methyl]amine] | 182 to 184 °C | – | – | – | – | – | – | – | – | – | – |
| COc1cc([N+](=O)[O-])c(OC)cc1CCNCc1ccccc1C(F)(F)F (as salt: HCl) [25N-NBCF3 (14), [2-(2,5-dimethoxy-4-nitrophenyl)ethyl]({[2-(trifluoromethyl)phenyl]methyl}) amine] | 156.7 to 159.1 °C | – | – | – | – | – | – | – | – | – | – |
| COc1cc([N+](=O)[O-])c(OC)cc1CCNCc1cccc2c1OC(F)(F)O2 (as salt: HCl) [25N-NBMDF2 (13), [(2,2-difluoro-2H-1,3-benzodioxol-4-yl)methyl][2-(2,5-dimethoxy-4-nitrophenyl)ethyl]amine] | 208.4 to 209.8 °C | – | – | – | – | – | – | – | – | – | – |
| COc1cc([N+](=O)[O-])c(OC)cc1CCNCc1ccccc1[N+](=O)[O-] (as salt: HCl) [25N-NBNO2 (15), [2-(2,5-dimethoxy-4-nitrophenyl)ethyl][(2-nitrophenyl)methyl]amine] | 200.5 to 201.7 °C | – | – | – | – | – | – | – | – | – | – |
| COc1cc([N+](=O)[O-])c(OC)cc1CCNCc1ccccc1Br [25N-NBBr (9)] | – | 79 ± 2% | No activity | < 10% | 4.7-fold increase | 14.6 µmol/kg | 6.31 mg/kg | 144 nM | 78 ± 2% | 61.9 | EC50 (5-HT2A [1]; 5-HT2A EC50, nM): 2.36 nM; EC50 (5-HT2C [2]): 30.9 nM; Emax (5-HT2C [2]): 81 ± 2.3%; EC50 (5-HT2B [5]): 245 nM; Emax (5-HT2B [5]): 17 ± 2.1% |
| COc1cc([N+](=O)[O-])c(OC)cc1CCNCc1ccccc1Cl [25N-NBCl (8)] | – | 80 ± 2% | No activity | < 10% | 2.3-fold increase | 10.4 µmol/kg | 4.04 mg/kg | 89.3 nM | 81 ± 2% | 43.3 | EC50 (5-HT2A [1]; 5-HT2A EC50, nM): 2.03 nM; EC50 (5-HT2C [2]): 21.4 nM; Emax (5-HT2C [2]): 82.5 ± 2.8%; EC50 (5-HT2B [5]): 204 nM; Emax (5-HT2B [5]): 27 ± 3% |
| COc1cc([N+](=O)[O-])c(OC)cc1CCNCc1ccccc1F [25N-NBF (7)] | – | 84 ± 1% | No activity | < 10% | 4.5-fold increase | 4.1 µmol/kg | 1.52 mg/kg | 28.8 nM | 82 ± 2% | 18.9 | EC50 (5-HT2A [1]; 5-HT2A EC50, nM): 1.56 nM; EC50 (5-HT2C [2]): 14.1 nM; Emax (5-HT2C [2]): 83.1 ± 2.1%; EC50 (5-HT2B [5]): 75.9 nM; Emax (5-HT2B [5]): 24.8 ± 3.2% |
| COc1cc([N+](=O)[O-])c(OC)cc1CCNCc1ccccc1C [25N-NBMe (6)] | – | 85 ± 1% | No activity | < 10% | 8.0-fold increase | 3.24 µmol/kg | 1.19 mg/kg | 33.2 nM | 89 ± 2% | 26.7 | EC50 (5-HT2A [1]; 5-HT2A EC50, nM): 1.19 nM; EC50 (5-HT2C [2]): 11.5 nM; Emax (5-HT2C [2]): 89.4 ± 2.3%; EC50 (5-HT2B [5]): 9.55 nM; Emax (5-HT2B [5]): 22.2 ± 3.2% |
| CCOc1ccccc1CNCCc1cc(OC)c([N+](=O)[O-])cc1OC [25N-NBOEt (5)] | – | 87 ± 2% | No activity | < 10% | 13.2-fold increase | 1.44 µmol/kg | 0.57 mg/kg | 0.88 nM | 99 ± 1% | 1.0 | EC50 (5-HT2A [1]; 5-HT2A EC50, nM): 0.72 nM |
| COc1cc([N+](=O)[O-])c(OC)cc1CCNCc1ccccc1O [25N-NBOH (3), 2-({[2-(2,5-dimethoxy-4-nitrophenyl)ethyl]amino}methyl)phenol] | – | 87 ± 2% | No activity | < 10% | 8.8-fold increase | 0.19 µmol/kg | 0.07 mg/kg | 1.78 nM | 100 ± 2% | 4.9 | EC50 (5-HT2A [1]; 5-HT2A (pEC50 ± SEM)): 0.316 nM |
